Results taken from patent US20110302823A1, “ATTRACTANT COMPOSITIONS FOR WEEVILS OF THE GENUS OT[…] USES THEREOF” (Stichting Dienst Landbouwkundig Onderzoek, priority 2010, published 2011).

Experiments:
O. sulcatus [1] = assay: Field experiment: attraction of weevils to odor dispensers in a strawberry field; type: in vivo, Otiorhynchus sulcatus; details: for number of weevils per replicate (O. sulcatus caught): total of whole season, back-transformed mean, 0.4 ml of each compound per dispenser, control 4.3
Procedure: A selection of single plant compounds (A=(Z)-2-pentenol and B=(E)-2-hexenol) and combinations of plant compounds (C=A+B in ratio 1:1, D=A+methyl eugenol in ratio 1:1, and E=A+B+methyl eugenol in ratio 1:1:1) were tested in a strawberry field (Fragaria×ananassa ‘Tillamook’) for attraction of O. sulcatus. Choice of compounds and mixtures were based on identification of EAD-active compounds from headspace of weevil-damaged E. fortunei ‘Dart's Blanket’ plants and paraffin oil extract of the same Euonymus plant species combined with bioassay results with the EAD-active compounds alone and in several mixtures (Van Tol, unpublished). The compound (Z)-2-pentenol (purity 95%) was obtained from Bedoukian (Danbury, Conn., USA), (E)-2-hexenol (purity >96%) from Acros (Geel, Belgium) and methyl eugenol (purity >98%) from Sigma-Aldrich (St. Louis, Mo., USA). All chemicals were used without further purification. Single compounds and mixtures were introduced in dispensers prior to use and sealed. In each dispenser 0.4 ml of each compound was present.
Plant volatile dispensers were made of 1.5 ml LDPE Pasteur pipettes (Labo Scientific, Ede, the Netherlands). The compounds to be tested were introduced into the pipette, the tip of which was then sealed by heat. Prior to use, the tip of the pipette was cut off at 1 cm above the reservoir portion. […] The dispenser is a simple and cheap existing design which enables a high release profile especially for larger quantities of plant volatiles. […]
Experiments were performed on a commercial strawberry field in Oregon (USA). […] Traps and dispensers were placed in the fields and monitored for weevils' presence between May and August 2009. […] Traps and plants surrounding each trap-dispenser combination were monitored for weevils weekly. […]

O. sulcatus antenna = assay: GC-EAD antennal response to plant headspace volatiles; parameters: species or system Otiorhynchus sulcatus; details: headspace of E. fortunei 'Dart's Blanket' plants and paraffin oil extract; not quantified
Procedure: (§1) Volatiles were collected from a bio-active extract of Euonymus fortunei ‘Dart's Blanket’ in paraffin oil and from cuttings of mechanically damaged and O. sulcatus-damaged E. fortunei ‘Dart's Blanket’. The antennal response to these plant odours by O. sulcatus were measured by gas chromatography coupled with electroantennogram detection (GC-EAD). Compounds giving an electrophysiological response were tentatively identified by gas chromatography coupled with mass-spectrometry (GC-MS). […] A selection of plant volatiles that gave an electrophysiological reaction on the antenna were tested as single compounds and in several mixtures of two or more compounds on bioactivity using the olfactometer developed specifically to study vine weevil behaviour (see e.g., Van Tol et al., (2002) Physiological Entomology 27, 213-222). A small selection of compounds bioactive in the lab was tested under field conditions in strawberry.
A filtered 10-ml extract of E. fortunei ‘Dart's Blanket’ in paraffin oil (Merck, Uvasol) and four O. sulcatus-damaged and four mechanically damaged 20-cm long cuttings of field-grown E. fortunei ‘Dart's Blanket’ were used for headspace collection. The extract was prepared by crushing 30 g of fresh leaves from the top 15 cm part of stems with 50 ml of paraffin oil on ice. The extract was crushed for approximately 20 min followed by immediately filtering through Whatman No. 90 (diameter 15 cm) paper filter. The filtered Euonymus extract was stored cool until use. Cuttings of Euonymus were mechanically damaged with a scissor by four incisions per leaf three hours prior to headspace collection.
The O. sulcatus-damaged Euonymus cuttings were prepared by offering 10 vine weevils 16 hrs prior to headspace collecting the cuttings. Weevils were removed and cuttings washed with deionized water prior to placing in a fresh 100 ml flask with water for headspace collection. For three days the Euonymus cuttings or a daily refreshed 10-ml paraffin oil extract of Euonymus in an open Petri-dish were placed under a glass bell jar (5 l) in a growth chamber at 20° C. and under long day (L:D=16:8 hr) light conditions. Air was purified by passage through a charcoal filter and drawn at 0.2 l min^−1 through the jar. Volatiles were entrained for a total of 69 hrs. For the collecting of volatiles, Gerstel thermodesorption tubes, filled with 80 mg Tenax TA 20/35 mesh (Grace Alltech), were used. Before use, these tubes were cleaned by rinsing them with 10 ml hexane and, subsequently, flushing them for one hour at 280° C. with 20 ml min purified nitrogen. Each Tenax tube was refreshed after approximately 8 hrs. The volatiles trapped on the Tenax were washed off with 15 ml hexane. […]

O. sulcatus [2] = assay: Laboratory (olfactometer) and field tests of attraction; type: in vivo, Otiorhynchus sulcatus
Procedure: as §1
Experiments were performed on a commercial strawberry field in Oregon (USA). Five different treatments (A, B, C, D and E) and one control were tested in the field. The control consisted of an empty dispenser. […] Traps and dispensers were placed in the fields and monitored for weevils' presence between May and August 2009. […] Traps and plants surrounding each trap-dispenser combination were monitored for weevils weekly. […]

| Compound | number of weevils per replicate (O. sulcatus caught) (O. sulcatus [1]) | antennal (EAD) response (O. sulcatus antenna) | attraction of O. sulcatus in strawberry (in words) (O. sulcatus [1]) | attractive to O. sulcatus in laboratory and field tests (in words) (O. sulcatus [2]) |
| --- | --- | --- | --- | --- |
| CCC/C=C/CO [Treatment B, (E)-2-hexenol] | 4.3 | EAD-active |  |  |
| C=C/C=C(\C)CCC=C(C)C [DMNT] |  | EAD-positive |  |  |
| CC/C=C\CO [Treatment A, (Z)-2-pentenol] | 11.3 | EAD-active | attractive | attractive |
| CC/C=C\CCO [(Z)-3-hexenol] |  | EAD-active |  |  |
